Source: US8314150B2, “Kinase protein binding inhibitors” (priority 2008, dated 2012)

Assays:
[1] = test system: BT474 breast cancer cells; assay: MTT cell viability assay, BT474; format: cell-based; settings: 24 hours
Description: (§1) Cell Viability Assay—The Cells were treated with peptides for 24 hours at different peptide concentrations. The 3-(4,5-dimethylthiazol-2-yl)-5-(3-carboxymethoxyphenyl)-2-(4-sulfophenyl)-2H-tetrazolium compound from Promega Viability kit (Madison, Ill.) was added, and the cells were incubated at 37° C. for 1-2 hours. The optical density on 96-plate was analyzed with a microplate reader at 490 nm to determine cell viability. In addition, cells were stained with trypan blue after 24 hours of treatment with Y15 and the percent of cells that stained positive were determined with a hemacytometer. […] Then 2% SDS was added to the dried plated and OD at 590 nm was measured for detecting cell adhesion. […] Protein concentrations were determined using a Bio-Rad Kit. The boiled samples were loaded on Ready SDS-10% PAGE gels (Bio Rad, Inc) and used for Western blot analysis with the protein-specific antibody. […] Detachment Assay—Cells were plated with and without inhibitors for 24 hours, and detached and attached cells were counted in a hemocytometer. We calculated the percent of detachment by dividing the number of detached cells by the total number of cells. The percent of detached cells was calculated in three independent experiments. […] For each experiment 300 cells per treatment were counted. […]

[2] = test system: Y397 phosphorylation of FAK; assay: Western blotting with Y397 FAK antibody, BT474 cells; format: cell-based
Description: (§2) Cell Viability Assay—The Cells were treated with peptides for 24 hours at different peptide concentrations. The 3-(4,5-dimethylthiazol-2-yl)-5-(3-carboxymethoxyphenyl)-2-(4-sulfophenyl)-2H-tetrazolium compound from Promega Viability kit (Madison, Ill.) was added, and the cells were incubated at 37° C. for 1-2 hours. The optical density on 96-plate was analyzed with a microplate reader at 490 nm to determine cell viability. In addition, cells were stained with trypan blue after 24 hours of treatment with Y15 and the percent of cells that stained positive were determined with a hemacytometer. Cell adhesion assay—The poly-L-Lysine or Collagen (5 μg/ml) coated 96-well plates were blocked with the blocking buffer (medium with 0.5% BSA) for 1 hour at 37 C. The cells were pre-treated with drugs for 3 hours and plated for adhesion at 4×10^5 cells. Cells were incubated at 37 C for 1 hour, fixed in 3.7% formaldehyde, washed in 0.1% BSA in PBS and stained with crystal violet (5 mg/ml in 2% ethanol) for 10 minutes. Then 2% SDS was added to the dried plated and OD at 590 nm was measured for detecting cell adhesion. Western Blotting—Cells or homogenized tumor samples were washed twice with cold 1×PBS and lysed on ice for 30 minutes in a buffer containing: 50 mM Tris-HCl (pH 7.5), 150 mM NaCl, 1% Triton-X, 0.5% NaDOC, 0.1% SDS, 5 mM EDTA, 50 mM NaF, 1 mM NaVO3, 10% glycerol and protease inhibitors: 10 μg/ml leupeptin, 10 μg/ml PMSF and 1 μg/ml aprotinin. The lysates were cleared by centrifugation at 10,000 rpm for 30 minutes at 4° C. Protein concentrations were determined using a Bio-Rad Kit. The boiled samples were loaded on Ready SDS-10% PAGE gels (Bio Rad, Inc) and used for Western blot analysis with the protein-specific antibody. Immunoblots were developed with chemiluminescence Renaissance reagent (NEN Life Science Products, Inc). Immunoprecipitation. Immunoprecipitation was performed according to the standard protocol. In brief, the pre-cleared lysates with equal amount of protein were incubated with 1 μg of primary antibody and 30 μl A/G agarose beads overnight at 4° C. The precipitates were washed with lysis buffer three times and re-suspended in 2× Laemmli buffer. The boiled samples were used for Western blotting, as described above. Detachment Assay—Cells were plated with and without inhibitors for 24 hours, and detached and attached cells were counted in a hemocytometer. We calculated the percent of detachment by dividing the number of detached cells by the total number of cells. The percent of detached cells was calculated in three independent experiments. Apoptosis Assay. Detached cells were collected and fixed in 3.7% formaldehyde in 1×PBS solution for the apoptosis assay. Detection of apoptosis was done with Hoechst 33342 staining. The percent of apoptotic cells was calculated as a ratio of apoptotic detached cells divided by the total number of cells in three independent experiments in several fields with the fluorescent microscope. For each experiment 300 cells per treatment were counted. In vitro Kinase Assay—10 μCi of [γ-^32P]-ATP in a kinase buffer (20 mM HEPES, pH 7.4, 5 mM MgCl2, 5 mM MnCl2, 0.1 mM Na3VO4 with 0.1 μg of purified FAK protein were incubated in a kinase buffer with 10 μCi of [γ-^32P]-ATP. The kinase reaction was performed for 5 minutes at room temperature and stopped by addition of 2× Laemmli buffer. Proteins were separated on a Ready SDS-10% PAGE gel, and the phosphorylated enolase was visualized by autoradiography. KinaseProfiler screening—Kinase specificity screening was performed with KinaseProfiler™ Service (Millipore) available on http://www.millipore.com/drugdiscovery/dd3/KinaseProfiler. The screening was performed with 1 μM Y15, 10 μM ATP and kinase substrates on 9 recombinant kinases according to Millipore protocol. Tumor Growth in Nude Mice—Female nude mice, 6 weeks old, were purchased from Harlan Laboratory. […]

[3] = test system: Y118-paxillin phosphorylation; assay: Western blotting Y118-paxillin, BT474 cells; format: cell-based; settings: 100 μM, 24 hours
Description: as §1

c-Src phosphorylation = assay: Phosphorylation of c-Src in cells; format: cell-based; settings: not shown
Description: as §1

[4] = test system: total FAK phosphorylation; assay: FAK immunoprecipitation and Western blotting with P-tyrosine antibody, BT474; format: cell-based; settings: IP with FAK antibody
Description: as §1

paxillin phosphorylation = assay: Western blotting p-paxillin, Panc-1 cells; format: cell-based, human; settings: 24 hours
Description: as §1

EGFR = target: T1, EGFR (Homo sapiens, UniProt P00533); assay: KinaseProfiler screening; format: biochemical; settings: 1 μM, 10 μM ATP
T1 construct: purchased Millipore KinaseProfiler Service (Upstate Biotechnology, Inc)
Description: as §2

IGF-1 = target: T2, IGF-1 (Homo sapiens, UniProt P08069); assay: KinaseProfiler screening; format: biochemical; settings: 1 μM, 10 μM ATP
T2 construct: purchased Millipore KinaseProfiler Service (Upstate Biotechnology, Inc)
Description: as §2

Met = target: T3, Met (Homo sapiens, UniProt P08581); assay: KinaseProfiler screening; format: biochemical; settings: 1 μM, 10 μM ATP
T3 construct: purchased Millipore KinaseProfiler Service (Upstate Biotechnology, Inc)
Description: as §2

PDGFR-α = target: T4, PDGFR-α (Homo sapiens, UniProt P16234); assay: KinaseProfiler screening; format: biochemical; settings: 1 μM, 10 μM ATP
T4 construct: purchased Millipore KinaseProfiler Service (Upstate Biotechnology, Inc)
Description: as §2

PI3K (p110δ/p85α) = target: T5, PI3K (p110δ/p85α) (Homo sapiens, UniProt O00329); assay: KinaseProfiler screening; format: biochemical; settings: 1 μM, 10 μM ATP
T5 construct: purchased Millipore KinaseProfiler Service (Upstate Biotechnology, Inc)
Description: as §2

Pyk2 = target: T6, Pyk2 (Homo sapiens, UniProt Q14289); assay: KinaseProfiler screening; format: biochemical; settings: 1 μM, 10 μM ATP
T6 construct: purchased Millipore KinaseProfiler Service (Upstate Biotechnology, Inc)
Description: as §2

VEGFR-3 = target: T7, VEGFR-3 (Homo sapiens, UniProt P35916); assay: KinaseProfiler screening; format: biochemical; settings: 1 μM, 10 μM ATP
T7 construct: purchased Millipore KinaseProfiler Service (Upstate Biotechnology, Inc)
Description: as §2

c-RAF = target: T8, c-RAF (Homo sapiens, UniProt P04049); assay: KinaseProfiler screening; format: biochemical; settings: 1 μM, 10 μM ATP
T8 construct: purchased Millipore KinaseProfiler Service (Upstate Biotechnology, Inc)
Description: as §2

c-Src = target: T9, c-Src (Homo sapiens, UniProt P12931); assay: KinaseProfiler screening; format: biochemical; settings: 1 μM, 10 μM ATP
T9 construct: purchased Millipore KinaseProfiler Service (Upstate Biotechnology, Inc)
Description: as §2

[5] = test system: Panc-1 and Miapaca-2 cells; assay: Trypan blue staining, pancreatic cancer cells; format: cell-based, human; settings: increasing doses, 24 hours
Description: as §1

Y397-FAK phosphorylation = assay: Y397-FAK levels in BT474 tumors (Western blotting, immunohistochemistry); format: in vivo; settings: 30 mg/kg, vs untreated mice
Description: as §1

[6] = test system: Y397 phosphorylation of FAK; assay: Western blotting with Y397 antibody, time course in pancreatic tumor cells; format: cell-based, human; settings: 100 μM
Description: as §1

Miapaca-2 cells = assay: Detachment assay, Miapaca-2; format: cell-based, human
Description: as §1

T9 sequence (P12931 whole entry): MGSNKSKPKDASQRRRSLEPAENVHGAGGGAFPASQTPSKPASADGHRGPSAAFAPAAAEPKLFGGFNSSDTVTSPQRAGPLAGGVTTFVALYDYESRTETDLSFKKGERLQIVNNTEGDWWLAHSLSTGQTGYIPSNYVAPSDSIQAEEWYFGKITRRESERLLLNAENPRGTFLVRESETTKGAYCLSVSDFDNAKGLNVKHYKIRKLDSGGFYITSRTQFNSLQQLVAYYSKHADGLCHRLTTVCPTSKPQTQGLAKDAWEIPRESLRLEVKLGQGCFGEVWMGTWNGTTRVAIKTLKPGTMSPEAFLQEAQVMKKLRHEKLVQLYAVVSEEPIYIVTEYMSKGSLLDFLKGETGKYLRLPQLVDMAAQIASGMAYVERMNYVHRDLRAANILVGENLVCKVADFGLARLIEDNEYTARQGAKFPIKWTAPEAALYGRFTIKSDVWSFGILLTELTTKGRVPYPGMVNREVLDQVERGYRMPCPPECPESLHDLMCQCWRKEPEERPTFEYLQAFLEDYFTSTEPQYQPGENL
T2 sequence (P08069 31-1367): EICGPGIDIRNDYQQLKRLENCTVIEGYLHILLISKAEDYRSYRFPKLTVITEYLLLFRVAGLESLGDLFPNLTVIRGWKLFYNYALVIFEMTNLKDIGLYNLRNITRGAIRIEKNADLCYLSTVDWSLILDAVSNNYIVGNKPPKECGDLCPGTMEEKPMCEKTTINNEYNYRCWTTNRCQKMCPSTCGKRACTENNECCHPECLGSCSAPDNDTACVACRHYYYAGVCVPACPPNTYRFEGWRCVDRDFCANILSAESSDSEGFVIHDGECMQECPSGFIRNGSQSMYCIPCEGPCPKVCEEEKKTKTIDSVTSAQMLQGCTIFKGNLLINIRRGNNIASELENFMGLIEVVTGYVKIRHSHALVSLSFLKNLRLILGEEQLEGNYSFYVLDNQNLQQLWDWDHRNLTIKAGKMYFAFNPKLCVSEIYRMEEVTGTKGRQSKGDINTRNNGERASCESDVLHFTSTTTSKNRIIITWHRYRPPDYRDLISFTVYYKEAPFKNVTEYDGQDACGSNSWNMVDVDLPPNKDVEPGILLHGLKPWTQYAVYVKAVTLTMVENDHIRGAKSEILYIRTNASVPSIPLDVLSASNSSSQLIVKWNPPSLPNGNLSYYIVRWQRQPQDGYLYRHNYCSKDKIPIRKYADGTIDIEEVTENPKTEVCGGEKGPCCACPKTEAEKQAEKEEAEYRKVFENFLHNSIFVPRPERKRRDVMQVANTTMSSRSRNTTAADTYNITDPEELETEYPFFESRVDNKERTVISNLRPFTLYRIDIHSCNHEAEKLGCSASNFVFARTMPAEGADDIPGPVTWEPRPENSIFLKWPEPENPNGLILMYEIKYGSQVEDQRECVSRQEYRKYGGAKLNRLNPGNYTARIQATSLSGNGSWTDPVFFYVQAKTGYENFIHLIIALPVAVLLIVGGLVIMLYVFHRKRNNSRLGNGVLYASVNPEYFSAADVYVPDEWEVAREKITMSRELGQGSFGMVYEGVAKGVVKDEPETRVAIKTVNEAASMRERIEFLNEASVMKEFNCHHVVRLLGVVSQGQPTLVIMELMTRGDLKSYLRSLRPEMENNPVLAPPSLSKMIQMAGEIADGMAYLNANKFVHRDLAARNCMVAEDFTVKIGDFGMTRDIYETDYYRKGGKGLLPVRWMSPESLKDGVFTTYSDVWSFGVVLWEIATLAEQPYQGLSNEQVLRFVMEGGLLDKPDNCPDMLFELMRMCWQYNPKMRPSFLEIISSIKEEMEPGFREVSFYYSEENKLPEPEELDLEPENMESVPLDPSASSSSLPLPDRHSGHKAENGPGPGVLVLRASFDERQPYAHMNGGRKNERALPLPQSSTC
T1 sequence (P00533 25-1210): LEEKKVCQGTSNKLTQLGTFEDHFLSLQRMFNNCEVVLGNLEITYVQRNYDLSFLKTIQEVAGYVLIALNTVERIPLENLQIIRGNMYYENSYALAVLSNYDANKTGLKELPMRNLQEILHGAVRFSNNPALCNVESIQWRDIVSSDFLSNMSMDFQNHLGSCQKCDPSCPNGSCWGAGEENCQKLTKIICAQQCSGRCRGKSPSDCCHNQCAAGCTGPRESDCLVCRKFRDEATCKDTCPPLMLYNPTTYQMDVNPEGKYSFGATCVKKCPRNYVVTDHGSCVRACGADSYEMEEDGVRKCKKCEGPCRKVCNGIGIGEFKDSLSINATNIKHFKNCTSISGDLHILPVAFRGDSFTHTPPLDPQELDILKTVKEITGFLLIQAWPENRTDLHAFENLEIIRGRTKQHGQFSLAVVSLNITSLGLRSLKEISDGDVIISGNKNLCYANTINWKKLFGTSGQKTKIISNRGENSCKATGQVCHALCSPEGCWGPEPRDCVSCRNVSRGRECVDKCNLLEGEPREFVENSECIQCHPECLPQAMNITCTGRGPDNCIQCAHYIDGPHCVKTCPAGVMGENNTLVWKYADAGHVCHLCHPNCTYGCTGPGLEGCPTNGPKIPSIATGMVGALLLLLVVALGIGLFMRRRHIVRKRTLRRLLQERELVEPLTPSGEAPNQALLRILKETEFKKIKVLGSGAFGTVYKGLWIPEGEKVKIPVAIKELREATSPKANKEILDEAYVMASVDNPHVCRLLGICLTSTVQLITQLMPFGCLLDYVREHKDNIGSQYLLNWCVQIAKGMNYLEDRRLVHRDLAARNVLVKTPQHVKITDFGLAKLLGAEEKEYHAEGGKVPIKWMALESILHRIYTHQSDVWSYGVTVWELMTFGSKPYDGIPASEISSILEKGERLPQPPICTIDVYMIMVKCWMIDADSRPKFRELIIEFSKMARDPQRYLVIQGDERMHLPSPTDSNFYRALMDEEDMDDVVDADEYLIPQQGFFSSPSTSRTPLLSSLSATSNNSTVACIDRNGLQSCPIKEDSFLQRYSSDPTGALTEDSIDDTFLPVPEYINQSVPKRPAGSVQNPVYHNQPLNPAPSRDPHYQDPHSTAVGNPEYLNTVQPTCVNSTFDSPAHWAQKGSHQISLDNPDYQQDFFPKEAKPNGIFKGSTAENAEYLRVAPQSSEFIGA
T4 sequence (P16234 24-1089): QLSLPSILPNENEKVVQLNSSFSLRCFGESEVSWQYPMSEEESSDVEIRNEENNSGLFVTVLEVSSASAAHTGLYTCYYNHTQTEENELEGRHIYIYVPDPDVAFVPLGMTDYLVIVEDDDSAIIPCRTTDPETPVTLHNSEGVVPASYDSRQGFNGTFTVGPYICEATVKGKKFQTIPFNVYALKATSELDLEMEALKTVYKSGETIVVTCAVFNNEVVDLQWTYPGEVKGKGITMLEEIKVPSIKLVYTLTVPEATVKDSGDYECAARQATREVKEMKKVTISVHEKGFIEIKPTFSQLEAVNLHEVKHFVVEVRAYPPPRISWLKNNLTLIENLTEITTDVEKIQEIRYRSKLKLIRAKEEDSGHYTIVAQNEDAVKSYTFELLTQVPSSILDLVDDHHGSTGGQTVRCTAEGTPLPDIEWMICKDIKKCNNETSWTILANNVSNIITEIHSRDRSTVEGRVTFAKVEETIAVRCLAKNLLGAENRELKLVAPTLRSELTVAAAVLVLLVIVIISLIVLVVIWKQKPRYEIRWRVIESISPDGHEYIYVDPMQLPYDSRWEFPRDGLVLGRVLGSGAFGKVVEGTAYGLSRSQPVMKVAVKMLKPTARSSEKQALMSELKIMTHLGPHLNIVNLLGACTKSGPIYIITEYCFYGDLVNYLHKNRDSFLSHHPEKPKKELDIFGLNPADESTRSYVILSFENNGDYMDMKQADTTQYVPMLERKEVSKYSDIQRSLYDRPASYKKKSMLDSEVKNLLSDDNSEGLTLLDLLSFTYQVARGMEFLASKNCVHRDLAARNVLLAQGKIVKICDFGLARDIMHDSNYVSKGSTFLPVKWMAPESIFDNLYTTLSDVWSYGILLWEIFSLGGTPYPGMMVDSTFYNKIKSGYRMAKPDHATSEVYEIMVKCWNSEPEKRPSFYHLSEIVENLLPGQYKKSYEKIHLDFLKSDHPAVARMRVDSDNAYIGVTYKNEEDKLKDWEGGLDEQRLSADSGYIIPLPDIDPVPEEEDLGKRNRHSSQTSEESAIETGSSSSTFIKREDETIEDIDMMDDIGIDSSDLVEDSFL
T8 sequence (P04049 whole entry): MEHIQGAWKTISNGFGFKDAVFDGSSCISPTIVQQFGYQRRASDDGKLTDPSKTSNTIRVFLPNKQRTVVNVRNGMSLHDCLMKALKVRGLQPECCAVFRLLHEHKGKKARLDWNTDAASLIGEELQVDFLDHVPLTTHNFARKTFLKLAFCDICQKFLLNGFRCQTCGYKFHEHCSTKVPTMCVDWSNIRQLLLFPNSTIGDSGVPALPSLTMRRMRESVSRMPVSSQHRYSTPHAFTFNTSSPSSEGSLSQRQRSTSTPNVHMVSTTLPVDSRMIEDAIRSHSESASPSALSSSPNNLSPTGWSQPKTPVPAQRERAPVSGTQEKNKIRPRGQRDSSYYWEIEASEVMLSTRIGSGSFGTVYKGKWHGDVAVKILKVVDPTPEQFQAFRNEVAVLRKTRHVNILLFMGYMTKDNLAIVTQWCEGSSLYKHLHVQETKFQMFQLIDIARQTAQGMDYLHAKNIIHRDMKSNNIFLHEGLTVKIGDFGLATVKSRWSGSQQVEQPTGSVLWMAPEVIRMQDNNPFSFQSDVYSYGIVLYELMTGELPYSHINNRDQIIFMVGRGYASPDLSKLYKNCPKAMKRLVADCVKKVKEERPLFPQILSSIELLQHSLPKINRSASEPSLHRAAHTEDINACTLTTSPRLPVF

Question: `Cl.Cl.Cl.Cl.Nc1cc(N)c(N)cc1N` [Y15, 1,2,4,5-benzenetetraamine tetrahydrochloride] was tested. Which “dose at which viability started to decrease” value [1] did it give?
Answer: Its value is 10 µM.

Question: And the “doses at which viability was significantly blocked” value [1]?
Answer: The value was 50 to 100 µM.

Question: And the “total FAK level” value ([2]; 100 μM)?
Answer: Its value is “down-regulates FAK”.

Question: And the “treatment time enough to completely block Y397-phosphorylation” value ([2]; 100 μM)?
Answer: The value was 8 h.

Question: And the “inhibition of Y397 phosphorylation compared with TAE226” value ([2]; 100 μM dose, 24 hours)?
Answer: Its value is “same inhibition as TAE226”.

Question: And the “Y397 phosphorylation after 4 hours” value ([2]; 100 μM, 4 hours)?
Answer: The value was “did not significantly decreased Y397 phosphorylation”.

Question: What about the “Y397 phosphorylation of FAK” value ([2]; 100 μM, 24 hours) of the same compound?
Answer: The value was “specifically inhibited Y397 phosphorylation of FAK”.

Question: And the “dose with high inhibition of Y397 phosphorylation” value ([2]; 24 hours)?
Answer: Its value is 50 µM.

Question: And the “dose with maximal inhibition of Y397 phosphorylation” value ([2]; 24 hours)?
Answer: The value was 100 µM.

Question: What about the “phosphorylation of Y118-paxillin” value [3] of the same compound?
Answer: The value was “inhibited”.

Question: What about the “phosphorylation of c-Src” value (c-Src phosphorylation) of the same compound?
Answer: The value was “did not inhibit”.

Question: And the “total FAK phosphorylation (P-tyrosine)” value [4]?
Answer: The value was “blocked total phosphorylation of FAK”.

Question: What about the “phosphorylation of FAK downstream substrate paxillin” value (paxillin phosphorylation) of the same compound?
Answer: Its value is “blocked”.

Question: What about the kinase activity (EGFR) of the same compound?
Answer: Its kinase activity is “did not significantly decrease kinase activity”.

Question: And the kinase activity (IGF-1)?
Answer: The kinase activity was “did not significantly decrease kinase activity”.

Question: And the kinase activity (Met)?
Answer: Its kinase activity is “did not significantly decrease kinase activity”.

Question: And the kinase activity (PDGFR-α)?
Answer: The kinase activity was “did not significantly decrease kinase activity”.

Question: What about the kinase activity (PI3K (p110δ/p85α)) of the same compound?
Answer: The kinase activity was “did not significantly decrease kinase activity”.

Question: And the kinase activity (Pyk2)?
Answer: Its kinase activity is “did not significantly decrease kinase activity”.

Question: And the kinase activity (VEGFR-3)?
Answer: The kinase activity was “did not significantly decrease kinase activity”.

Question: And the kinase activity (c-RAF)?
Answer: The kinase activity was “did not significantly decrease kinase activity”.

Question: What about the kinase activity (c-Src) of the same compound?
Answer: The kinase activity was “did not significantly decrease kinase activity”.

Question: What about the “cell viability (trypan blue)” value [5] of the same compound?
Answer: Its value is “decreased cell viability indicative of necrosis”.

Question: What about the “Y397-FAK phosphorylation in tumors” value (Y397-FAK phosphorylation) of the same compound?
Answer: The value was “less Y397-FAK phosphorylation”.

Question: And the “total FAK levels in tumors” value (Y397-FAK phosphorylation)?
Answer: The value was “the same”.

Question: And the “treatment time enough to completely block Y397-phosphorylation” value [6]?
Answer: The value was 24 h.

Question: And the “Y397 phosphorylation after 6 hours or less” value ([6]; 6 hours or less)?
Answer: The value was “did not significantly decrease Y397 phosphorylation”.

Question: What about the “dose from which detachment was significant” value (Miapaca-2 cells) of the same compound?
Answer: Its value is 3 µM.
